From patent US7888293B2, “Compositions and methods relating to orthogonal ribosome mRNA pairs” (priority 2005, dated 2011)

Assays:
Type in all cases: cell-based, E. coli
O-mRNA-Cα and O-mRNA-Aω = test: Boolean AND gate, β-galactosidase FDG fluorescence; conditions: BW26444 cells
Method: The AND function was created in BW26444 cells, which are deleted in lacZ. Their genotype is (Δ(araD-araB)567, Δ(lacA-lacZ)519(::FRT), laclp-4000(lacl^Q), λ^−, rpoS396(Am), rph-1, Δ(rhaD-rhaB)568, hsdR514). Heat shock competent BW26444 cells containing the logic gate plasmid were prepared by standard CaCl2 treatment, and combinations of rRNA inputs accessed by double transformation. Transformed cells were recovered in SOB with 2% glucose and transferred to LB agar containing 2% glucose, 50 μg ml^−1 ampicillin, 25 μg ml^−1 kanamycin, 12.5 μg ml^−1 tetracycline and incubated (16 h, 37° C.). Individual colonies were transferred to each well of a 96 well culture block containing 100 μl of media (LB containing 2% glucose, 50 μg ml^−1 ampicillin, 25 μg ml^−1 kanamycin, 12.5 μg ml^−1 tetracycline) and grown overnight. Cells were pelleted by centrifugation (3000 g, 5 min) and resuspended in 1 ml of LB containing 50 μg ml^−1 ampicillin, 25 μg ml^−1 kanamycin, 12.5 μg ml^−1 tetracycline. After a further 1 h incubation (37° C., 250 rpm) cells were supplemented with isopropyl-β-D-thiogalactopyranoside (to 1 mM), and incubated (37° C., 250 rpm, 4 h) and the OD600 measured. […] An equal volume of 2× buffer Z (120 mM Na2HPO4, 80 mM NaH2PO4, 20 mM KCl, 2 mM MgSO4, 100 mM β-mercaptoethanol) containing fluorescein di-β-D-galactopyranoside (Molecular Probes, final concentration 0.5 mM) was added and incubated (22° C.) until a strong fluorescent signal was detected (approximately 5 min). […] Fluorescence was detected using a Spectra Max Gemini XS (Molecular Devices), with excitation at […] and emission detection at 450 nm.
Fluorescence was normalized for cell density and time of incubation with β-galactosidase substrate, using the equation: Fluorescence=1000×(raw fluorescence450 nm)/(t.V.OD600) Where (t) is time of incubation in seconds and (V) is the volume of culture used. […]
Cells containing a plasmid encoding both O-mRNA-Cα and O-mRNA-Aω were programmed with either wild-type rRNA, rRNA-A, rRNA-C or rRNA-C and rRNA-A together, and the conversion of FDG to fluorescein measured. […]

O-mRNA-Aα and O-mRNA-Cα = test: Boolean OR gate, β-galactosidase FDG fluorescence; conditions: OR gate, DH10B
O-mRNA-Ccat = test: Translation of cat from O-mRNA-Ccat, chloramphenicol resistance, compatible rRNA plasmids
From the text: The RSF rRNA expression plasmid was derived from the previously described Col E1 expression plasmid (pTrc16S23S; Rackham & Chin, 2005, Nature Chem. Biol. 1: 159-166). The RSF1030 replicon, containing a kanamycin resistance gene, was amplified by PCR from pRSFDuet-1 (Novagen) using the oligonucleotides 5′-[…]-3′(SEQ ID NO: 120) and 5′-[…]-3′ (SEQ ID NO: 121). The resulting PCR product was digested with Kpn I and Sph I and used to replace the Kpn I, Sph I replicon-containing portion of pTrc 16S23S ribosome plasmids. CAT activity assays for orthogonal ribosome activity were performed as described in Rackham & Chin, 2005, supra).
One vector for rRNA production has a ColE1 origin of replication and an ampicillin resistance gene and is present at about 50 copies per cell. A second vector for rRNA production has an RSF origin of replication and a kanamycin resistance gene, and is present at about 100 copies per cell. […] To ascertain the effect of plasmid flanking sequences and plasmid copy number on the activity of the O-ribosomes incorporating plasmid-encoded rRNA, the translation of the chloramphenicol acetyl transferase gene (cat) from O-mRNA-Ccat (a version of cat with the 5′ orthogonal ribosome binding site C) was measured. […]

| Substance | fluorescence (conversion of FDG to fluorescein) (O-mRNA-Cα and O-mRNA-Aω) | fluorescence (O-mRNA-Aα and O-mRNA-Cα) | IC50 chloramphenicol resistance (O-mRNA-Ccat; ColE1 plasmid) [µg/mL] | IC50 chloramphenicol resistance (O-mRNA-Ccat; RSF plasmid) [µg/mL] | fluorescence signal above background (O-mRNA-Aα and O-mRNA-Cα) [fold] |
| --- | --- | --- | --- | --- | --- |
| wild-type rRNA: wild-type 16S rRNA, SEQ ID NO:116, plasmid-encoded control input (AUCACCUCCUUA; listed as Escherichia coli) [reference compound] | low fluorescence | comparable to that observed in the absence of plasmid-encoded a fragment |  |  |  |
| rRNA-C: O-rRNA-C, SEQ ID NO:129, orthogonal 16S rRNA cognate to O-mRNA-C; probably rRNA-9 (AUCAUGGGAUUA; expressed or natural sequence) | low fluorescence |  | 150 | 250 | 15 |
| rRNA-A: O-rRNA-A, SEQ ID NO:125, orthogonal 16S rRNA cognate to O-mRNA-A; probably rRNA-2 (AUCACUGUGGUA; expressed or natural sequence) | low fluorescence |  |  |  | 10 |
